Several values for one entry are separate records, joined by “and”; a condition that tells them apart may be missing. Identical values can stand only once.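 How tested: cells in 96-well plates exposed to compound for 48 hours at five concentrations. The concentration for 50% growth inhibition is given as GI50. TGI denotes the concentration required for complete inhibition of growth.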 Where a SMILES comes first, the peptide text is derived from it. [ ]: non-standard residue; d: D form. Orn = NCCC[CH](N)C(=O)O
What was measured:
Experiment in all cases: NCI anticancer screen, dose series, 48 h
SNB-19 CNS = system: SNB-19 CNS
HCC-2998 colon = system: HCC-2998 colon
LXFL 529 NSCLC = system: LXFL 529 NSCLC
TK-10 renal = system: TK-10 renal
M19-MEL melanoma = system: M19-MEL melanoma
EKVX NSCLC = system: EKVX NSCLC
K-562 leukemia = system: K-562 leukemia
786-0 renal = system: 786-0 renal
RXF 393 renal = system: RXF 393 renal
T-47D breast = system: T-47D breast

Row | Compound | TGI (SNB-19 CNS) | TGI (HCC-2998 colon) | TGI (LXFL 529 NSCLC) [µM] | TGI (TK-10 renal) | TGI (M19-MEL melanoma) [µM] | TGI (EKVX NSCLC) | TGI (K-562 leukemia) [µM] | TGI (786-0 renal) | GI50 (SNB-19 CNS) | GI50 (HCC-2998 colon) | GI50 (RXF 393 renal) | TGI (RXF 393 renal) | GI50 (TK-10 renal) | GI50 (EKVX NSCLC) | GI50 (T-47D breast) [µM] | TGI (T-47D breast) | GI50 (K-562 leukemia) | GI50 (786-0 renal)
1 | Cc1cc2c(=O)cc(-c3ccc(C(=O)O)cc3)oc2c(C(=O)O)c1C | > 100 µM | > 100 µM | > 100 | > 100 µM | > 100 | > 100 µM | > 100 | > 100 µM | – | – | – | – | – | – | – | – | – | –
2 | COC(=O)c1cc(O)ccc1NC(=O)c1ccc(O)cc1 | > 100 µM | > 100 µM | > 100 | > 100 µM | > 100 | > 100 µM | > 100 | > 100 µM | – | – | – | – | – | – | – | – | – | –
3 | O=C(Cc1nc2ccccc2s1)NC12CC3CC(CC(C3)C1)C2 | > 100 µM | > 100 µM | > 100 | > 100 µM | > 100 | > 100 µM | > 100 | > 100 µM | – | – | – | – | – | – | – | – | – | –
4 | Cc1ccccc1C(C#N)/C(=N/NC(=O)C(=O)NN)C(=O)Nc1cccc(C(F)(F)F)c1 (stereo not given) | > 100 µM | > 100 µM | > 100 | > 100 µM | > 100 | > 100 µM | > 100 | > 100 µM | – | – | – | – | – | – | – | – | – | –
5 | C=C1CCC2C(C)(CO)C(O)CCC2(C)C1CC(O)C1=CCOC1=O (stereo not given) | > 100 µM | 40.8 µM | > 100 | > 100 µM | > 100 | > 100 µM | > 100 | 71.6 µM | – | – | – | – | – | – | – | – | – | –
6 | OCCCNC(=S)Nc1ccc(-c2nc3ccccc3s2)cc1 | > 100 µM | 26.8 µM | – | 55.8 µM | – | 83.2 µM | > 100 | 55.2 µM | 32.2 µM | 13.7 µM | 10.4 µM | 52.4 µM | 19.3 µM | 17 µM | 16.9 | > 100 µM | 29.7 µM | 22.8 µM
7 | COc1ccc2c(c1)N(CCO)C1=C(C(=O)OC1)C2c1cccc(Br)c1 (stereo not given) | > 100 µM | 15.7 µM | – | 83.6 µM | – | > 100 µM | > 67.6 | 41.4 µM | 0.141 µM | 0.184 µM | 0.0482 µM | 71 µM | 0.349 µM | 0.694 µM | 26.1 | > 100 µM | 0.0532 µM | 0.12 µM
8 | CCN1CCN(Cc2ccc3cc(C(=O)Nc4cc(NC(=O)c5ccc6c(c5)OCCO6)ccc4F)ccc3n2)CC1 | 11.2 µM | 5.73 µM | – | 4.29 µM | – | 1.79 µM | 14.5 | 13.1 µM | 0.165 µM | 0.0511 µM | 0.0142 µM | 0.0729 µM | 0.0429 µM | 0.112 µM | 0.0451 | 23 µM | 0.0505 µM | 0.0604 µM
9 | COc1ccc2c(c1)c(=O)oc1cc(OC/C(=N\O)c3ccc(F)cc3)ccc12 | 58.8 µM | 33.5 µM | – | 52.8 µM | – | > 100 µM | > 100 | 33.7 µM | 12.2 µM | 16.4 µM | 21.8 µM | 58.6 µM | 17.5 µM | 30.2 µM | 28.4 | > 100 µM | 25.6 µM | 13.6 µM
10 | NC(CCCNCc1ccccc1O)C(=O)O (stereo not given) | > 100 µM | – | > 100 | > 100 µM | > 100 | > 100 µM | > 100 | > 100 µM | – | – | – | – | – | – | – | – | – | –
11 | COc1ccc(OC)c2c3c(ncc12)-c1cc2c(cc1C3)OCO2 | > 100 µM | > 100 µM | – | > 100 µM | – | > 100 µM | > 100 | > 100 µM | > 100 µM | > 100 µM | > 100 µM | > 100 µM | > 100 µM | 93.4 µM | > 100 | > 100 µM | 24.6 µM | 22.5 µM
12 | O=c1nc2[nH]nc(-c3ccccc3)c2n[nH]1 | > 100 µM | > 100 µM | > 100 | > 100 µM | – | > 100 µM | > 100 | 52 µM | – | – | – | > 100 µM | – | – | – | – | – | –
13 | COC(=O)CCC(=O)C(C#N)c1ccc(Cl)cc1Cl (stereo not given) | > 100 µM | – | > 100 | > 100 µM | > 100 | > 100 µM | > 100 | > 100 µM | – | – | – | – | – | – | – | – | – | –
14 | Nc1nn(C(=O)Nc2ccc(Cc3ccccc3)cc2)c2ccccc12 | > 100 µM | 35.9 µM | – | > 100 µM | – | 92 µM | 33.8 | 26.2 µM | 22.8 µM | 4.27 µM | 22.2 µM | 58.2 µM | 27.2 µM | 11.2 µM | 1.55 | > 100 µM | 1.2 µM | 3.76 µM
15 | COC(=O)[C@]1(C)CCC[C@]2(C)C3CC4OOC3(C=C4C(C)C)CCC21 (stereo not given in full) | 31.3 µM | 30.4 µM | 27.2 | 82.1 µM | – | 30.4 µM | 33.7 | 17.6 µM | – | – | – | – | – | – | – | – | – | –
16 | COc1ccc2cc(C(=O)/C=C/c3ccccc3OC)ccc2c1 | > 51.4 µM | 13 µM | – | > 40.1 µM | – | 58.5 µM | – | 21.5 µM | 4.37 µM | 5.92 µM | 2.54 µM | 7.63 µM | 2.89 µM | 17.5 µM | 2.58 | > 89.1 µM | 0.669 µM | 5.59 µM
17 | C(#Cc1ccccc1C#Cc1ccccn1)c1ccc(OCCCCCCOc2ccc(C#Cc3ccccc3C#Cc3ccccn3)cc2)cc1 | 11.4 µM | 13.3 µM | – | 15.8 µM | – | 22.9 µM | 18.5 | 28.8 µM | 4.39 µM | 6.83 µM | 6.91 µM | 13.6 µM | 5.33 µM | 5.09 µM | 1.52 | 14.1 µM | 1.81 µM | 5.55 µM
18 | COc1cc2c(/C=C3/C(=O)Nc4c3ccc3ccccc43)c(Cl)[nH]c2cc1C | > 50 µM | < 0.005 µM | – | > 50 µM | – | > 36.3 µM | 0.58 | > 24.2 µM | 0.0402 µM | < 0.005 µM | 0.0999 µM | 33.4 µM | 30.5 µM | 0.222 µM | > 50 | > 50 µM | < 0.005 µM | 0.0598 µM
19 | O=C1/C(=c2\c3ccccc3n3c(=O)c4ccccc4nc23)Nc2ccccc21 | > 100 µM | > 100 µM | – | > 100 µM | – | > 100 µM | > 100 | > 100 µM | – | – | – | > 100 µM | – | – | – | > 100 µM | – | –
20 | COc1cc([C@@H]2c3cc4c(cc3[C@H](O)[C@H]3COC(=O)[C@@H]23)OCO4)cc(OC)c1OC | > 100 µM | > 6.16 µM and 0.647 µM | – | 9.86 µM | – | > 100 µM | > 100 | > 100 µM | 0.462 µM and 0.231 µM | 0.948 µM and 0.159 µM | 0.211 µM and 0.316 µM | – | 0.743 µM | 0.434 µM | 0.405 | 4.64 µM | 0.349 µM and 0.405 µM | 0.504 µM and 0.332 µM
21 | CC(C)CC1NC(=O)C(CCCN)NC(=O)C(C(C)C)NC(=O)C2CCCN2C(=O)C(Cc2ccccc2)NC(=O)C(CC(C)C)NC(=O)C(CCCN)NC(=O)C(C(C)C)NC(=O)C2CCCN2C(=O)C(Cc2ccccc2)NC1=O (stereo not given) (cyclo(FPV[Orn]LFPV[Orn]L); configuration not given here) | 0.486 µM and 1.38 µM | 1.29 µM and 1.74 µM | – | 1.51 µM and 5.71 µM | – | 0.442 µM and 1.23 µM | 0.0565 | 0.46 µM and 1.26 µM | < 0.00325 µM | < 0.00325 µM | 0.0352 µM and 0.0515 µM | 0.72 µM and 1.44 µM | 0.0213 µM and 0.104 µM | 0.0105 µM and 0.0175 µM | < 0.00325 | 0.433 µM and 1.24 µM | < 0.00325 µM | 0.0451 µM and 0.0506 µM
22 | Cn1cc(-c2nc(-c3cn(C)c4ncccc34)cs2)c2cc(F)ccc21 | > 100 µM | 24.2 µM | – | 38 µM | – | 74.3 µM | > 100 | 12.8 µM | 2.89 µM | 0.962 µM | 1.51 µM | 4.77 µM | 3.01 µM | 1.93 µM | 0.648 | 23.2 µM | 0.358 µM | 2.57 µM
23 | CCN(CC)CCCC(C)Nc1ccnc2cc(Cl)c(SCc3ccccc3)cc12 (stereo not given) | 4.41 µM | 1.88 µM | – | 1.6 µM | – | 6.75 µM | 0.702 | 2.85 µM | 1.78 µM | 0.511 µM | 1.42 µM | 2.78 µM | 0.512 µM | 1.93 µM | 1.98 | 4.77 µM | 0.266 µM | 1.47 µM
24 | CN(C)CCOc1cccc(NC2=C(Cl)C(=O)C(Nc3cccc(OCCN(C)C)c3)=C(Cl)C2=O)c1 | 3.31 µM | 3 µM | – | 0.513 µM | – | 2.13 µM | 0.608 | 1.12 µM | 1.72 µM | 1.44 µM | 0.358 µM | 1.21 µM | 0.234 µM | 0.794 µM | 0.189 | 0.453 µM | 0.162 µM | 0.49 µM
25 | Cn1c2ccccc2c(=S)c2cc(NC(=O)CCCCC(=O)Nc3ccc4c(c3)c(=S)c3ccccc3n4C)ccc21 | > 100 µM | > 100 µM | – | > 100 µM | – | > 100 µM | > 100 | > 100 µM | – | – | – | > 100 µM | – | – | – | > 100 µM | – | –
26 | N=C1N=Nc2nc(C3(c4nc5n(c4O)C(=N)N=N5)Cc4ccccc4C3=O)c(O)n21 (stereo not given) | > 100 µM | > 100 µM | – | > 100 µM | – | > 100 µM | > 100 | > 100 µM | – | – | – | > 100 µM | – | – | – | > 100 µM | – | –
